From patent publication US8748116B2, “1L1RL-1 as a cardiovascular disease marker and therapeutic target” (The Brigham and Women s Hospital, Inc., priority 2002, dated 2014)
Entries after “also recorded” stand apart in the source; their conditions may differ. Starred links: 1 amine or outer side, 2 acyl side, 3 side chain; linkers in the order of their positions; H or OH if unused. Positions of bridges follow the written chain, without caps; N, C: chain ends. Non-standard residues stand in square brackets, D forms with d. Residues, ends and D or L forms follow the SMILES beside them. Chains are numbered I, II in the order given. Actinocin(9to1) = Cc1c2oc3c(C)ccc(C(=O)[*:1])c3nc-2c(C(=O)[*:2])c(N)c1=O; NMeV = CN[C@H](C(=O)O)C(C)C; Sar = CNCC(=O)O

Experiments:
[1] = system: IL1RL-1 mRNA expression; assay: Northern blot of IL1RL-1 (T1/ST2) mRNA induction in cultured neonatal rat cardiac myocytes, with or without 8% cyclic mechanical strain; format: cell-based; settings: for effect on the induction of IL1RL-1 mRNA expression by 8% mechanical strain: FIG. 4, applied during strain, actinomycin D 5 μg/ml (2 and 4 hours), cyclohexamide 10 μg/ml; for induction of IL1RL-1 mRNA expression in the absence of mechanical strain: FIG. 2, 3 hours, Ang II 50 nM; for induction of IL1RL-1 mRNA expression in the absence of mechanical strain / rank order potency for the induction of IL1RL-1 mRNA expression / induction of IL1RL-1 mRNA expression by the agent alone: IL-1β 10 ng/ml; for induction of IL1RL-1 mRNA expression in the absence of mechanical strain / rank order potency for the induction of T1/ST2 mRNA expression: PMA 200 nM; for rank order potency for the induction of IL1RL-1 mRNA expression: PMA 100 ng/ml, 8% strain; for induction of IL1RL-1 mRNA expression by the agent alone: PMA 100 ng/ml in the absence of strain; for rank order potency for the induction of T1/ST2 mRNA expression: strain 8%, 1 and 3 hours
Excerpt: The approach to mechanical stimulation used an apparatus that has multiple platens that contact the underside of silicone elastomer membranes to apply a spatially isotropic biaxial strain profile to the membrane (Schaffer J L, et al., J Orthop Res, 1993, 12:709-719; and U.S. Provisional Patent application 60/144,134 filed on Jul. 16, 1999 entitled “AN APPARATUS FOR STUDYING MYOCARDIAL MECHANICAL OVERLOAD HYPERTROPHY AND USES THEREFOR, by Richard T. Lee. Six individual 78 mm membranes can be stretched at once with varying amplitudes of strain by controlling displacement of each platen with a stepper motor. Measured Green strains are accurate to ˜±0.25% at strains from 1-14% (Cheng G C, et al., Circ Res, 1997, 80:28-36; Brown T D, J Biomechanics, 2000, 33:3-14). Throughout this study, 8% biaxial strain was used.
Neonatal rat ventricular myocytes (NRVM) from 1-day old Sprague-Dawley rats were isolated by previously described methods (Springhorn J P, and Claycomb W C., Biochem J, 1989; 258:73-78; Arstall M A, et al., J Mol Cell Cardiol, 1998, 30:1019-25). NRVM were plated on the coated membrane dish at a density of 2,000,000 cells/dish in DMEM containing 7% FCS and incubated 24 h. Approximate cell confluence was 85-90%. NRVM were then made quiescent by washing with 10 ml of Hanks' balanced salt solution (HBSS, 138 mM NaCl, 5.3 mM KCl, 4.0 mM NaHCO3, 1.3 mM CaCl2, 0.5 mM MgCl2, 0.4 mM MgSO4, 0.4 mM KH2PO4, 0.3 mM Na2HPO4, 5.6 mM glucose; Life Technologies, Inc., Rockville, Md.) twice and incubating with 26 ml of DMEM containing 0.2% FCS for 48-72 hours.
The cDNA clones for differentially expressed genes were obtained by PCR using the GenBank sequences. Each clone was sequenced from both 5′ and 3′ ends to confirm identity. Positive elements in the DNA microarray were confirmed by Northern blot hybridization analysis in at least three independent experiments using three different sources of NRVMs. Total RNA was isolated by the guanidium thiocyanate and phenol chloroform method (Chomcyznski, et al., Anal. Biochem., 1987, 162:156-159). For Northern blotting, 15 μg RNA was loaded on a 1.0% agarose-formaldehyde gel (2.0 mol/l), transferred to a nylon membrane (Amersham Pharmacia Biotech AB, Piscataway, N.J.), and UV cross-linked with a UV Stratalinker (Stratagene, Inc., La Jolla, Calif.). Each probe was hybridized with ExpressHyb solution (Clontech Labs., Inc., Palo Alto, Calif.) at 68° C. for 1 hour. The membrane was washed with 2×SSC, 0.05% SDS solution for 30 to 40 minutes and three times at room temperature and 0.1×SSC, 0.1% SDS solution with continuous shaking at 50° C. for 40 minutes. The membrane was exposed to film at −80° C., and radiographs were scanned and analyzed with Optimas 5.0 software (Optimas Co./Media Cybernetics, Silver Springs, Md.). Densitometric units were normalized to the ethidium-stained 28S ribosomal subunit on the membrane.
T1/ST2 mRNA is induced by mechanical strain in cultured neonatal cardiac myocytes. Neonatal rat ventricular myocytes were isolated by collagenase digestion, plated on fibronectin-coated silicone membrane dishes at a density of 3.5 million cells/dish in 13 ml media as previously described (Yamamoto K, et al. J Biol. Chem. 1999; 274:21840-21846). This technique yields cultures with ≧95% myocytes. Mechanical deformation was applied using a device that provides uniform biaxial cyclic strain as previously described (Yamamoto K, et al. J Biol. Chem. 1999; 274:21840-21846). RNA was extracted (Qiagen) and Northern blotting was performed using as a probe a ^32P-labelled 600 bp PCR fragment specific to rat T1/ST2. Maximal induction occurs at 3 hours, is sustained for 9 hours and declines by 15 hours. […]

[2] = system: T1/ST2 mRNA; assay: T1/ST2 mRNA induction in human adult vascular smooth muscle cells; format: cell-based

Question: Which “effect on the induction of IL1RL-1 mRNA expression by 8% mechanical strain” value [1] does the source give for `Cc1c2oc3c(C)ccc(C(=O)N[C@@H]4C(=O)N[C@H](C(C)C)C(=O)N5CCC[C@H]5C(=O)N(C)CC(=O)N(C)[C@@H](C(C)C)C(=O)O[C@@H]4C)c3nc-2c(C(=O)N[C@@H]2C(=O)N[C@H](C(C)C)C(=O)N3CCC[C@H]3C(=O)N(C)CC(=O)N(C)[C@@H](C(C)C)C(=O)O[C@@H]2C)c(N)c1=O` [Actinomycin D, actinomycin D] (I: T[dV]P[Sar][NMeV] / II: T[dV]P[Sar][NMeV]; ester I:1-I:C, II:1-II:C; linker I:N-II:N via Actinocin(9to1)) here?
Answer: blocked the induction

Question: Which “effect on the strain-induced induction of IL1RL-1” value ([1]; FIG. 3, 8% mechanical strain, H2O2 100 uM) does the source give for `OO` [H2O2, hydrogen peroxide] here?
Answer: blocks the strain-induced induction

Question: And the “induction of IL1RL-1 in the absence of strain” value ([1]; FIG. 3, H2O2 100 uM)?
Answer: does not induce

Question: With `CCCCCCCCCCCCCC(=O)O[C@@H]1[C@@H](C)[C@@]2(O)[C@@H](C=C(CO)C[C@]3(O)C(=O)C(C)=C[C@@H]23)[C@@H]2C(C)(C)[C@]12OC(C)=O` [PMA] as the molecule, how does the “induction of IL1RL-1 mRNA expression in the absence of mechanical strain” value (“induction … of mechanical strain” below) [1] read?
Answer: associated with an induction

Question: And the “rank order potency for the induction of IL1RL-1 mRNA expression” value ([1]; FIG. 5)?
Answer: PMA>strain>IL-1β

Question: What about the “induction of IL1RL-1 mRNA expression by the agent alone” value ([1]; FIG. 5) of the same molecule?
Answer: strongest induction

Question: What about the “rank order potency for the induction of T1/ST2 mRNA expression” value ([1]; FIG. 9, interleukin-1 10 ng/ml) of the same molecule?
Answer: PMA>strain>interleukin-1β; also recorded: PMA>strain>IL-1

Question: And the “induction of T1/ST2 mRNA” value [2]?
Answer: not

Question: With `O=S(=O)(O)c1cc(O)c(O)c(S(=O)(=O)O)c1` [TIRON] as the molecule, how does the “mRNA expression of IL1RL-1 in the absence and presence of strain” value ([1]; FIG. 3, TIRON 10 mM) read?
Answer: slightly attenuated

Question: With `C[C@@H]1C[C@@H]([C@H](O)CC2CC(=O)NC(=O)C2)C(=O)[C@@H](C)C1` [cyclohexamide] as the molecule, how does the “effect on the induction of IL1RL-1 mRNA expression by 8% mechanical strain” value [1] read?
Answer: blocked the induction

Question: With angiotensin II as the molecule, how does the “induction … of mechanical strain” value [1] read?
Answer: did not induce

Question: interleukin-1β [IL-1β] was tested. Which “induction of T1/ST2 RNA in cardiac myocytes” value [1] did it give?
Answer: induce T1/ST2 RNA

Question: And the “induction … of mechanical strain” value [1]?
Answer: associated with an induction

Question: And the “induction of IL1RL-1 by mechanical strain in the presence of IL-1β” value ([1]; FIG. 5, 8% strain plus IL-1β 10 ng/ml)?
Answer: not further increased

Question: And the “rank order potency for the induction of IL1RL-1 mRNA expression” value ([1]; FIG. 5)?
Answer: PMA>strain>IL-1β

Question: What about the “induction of IL1RL-1 mRNA expression by the agent alone” value ([1]; FIG. 5) of the same molecule?
Answer: induced

Question: And the “induction of T1/ST2 by mechanical strain in the presence of interleukin-1β” value ([1]; FIG. 9, 8% strain plus interleukin-1 10 ng/ml)?
Answer: not further increased

Question: And the “rank order potency for the induction of T1/ST2 mRNA expression” value ([1]; FIG. 9, interleukin-1 10 ng/ml)?
Answer: PMA>strain>interleukin-1β

Question: What about the “rank order potency for the induction of T1/ST2 mRNA expression” value ([1]; FIG. 9, interleukin-1 10 ng/ml, listed as IL-1) of the same molecule?
Answer: PMA>strain>IL-1

Question: And the “induction of T1/ST2 mRNA in the presence of infection with control adenovirus” value ([1]; FIG. 10, interleukin-1 10 ng/ml, 4 hours)?
Answer: induced T1/ST2 mRNA

Question: What about the “induction of T1/ST2 mRNA” value [2] of the same molecule?
Answer: induced
